Measurements published in the NIST ThermoML archive (doi:10.1016/j.jct.2013.05.014).

Key:
[1] = xn = mol fraction of the nth substance listed; details: 298.15 K, 101 kPa, Liquid; for viscosity: Capillary tube (Ostwald / Ubbelohde) method; for mass density: Pycnometric method
[2] = 298.15 K, 101 kPa, Liquid; for viscosity: Capillary tube (Ostwald / Ubbelohde) method; for mass density: Pycnometric method

CCCCCCCCCC [decane] + CCCCC(C)O
[1], x1 = 1
Details | mass density [kg/m3] | viscosity [mPa·s]
– | 726.35 | 0.845

CCCCCCCCCC [decane] + CCCCCCC(C)O
[1], x1 = 1
Details | mass density [kg/m3] | viscosity [mPa·s]
– | 726.35 | 0.845

CCCCCCC(C)O (centres undefined) [2-octanol] + CCCCCCCCCC
[1]
Details | mass density [kg/m3] | viscosity [mPa·s]
x2 = 0 | 817.05 | 6.429
x2 = 0.0554 | 810.77 | 5.222
x2 = 0.0998 | 805.83 | 4.638
x2 = 0.1554 | 799.74 | 3.972
x2 = 0.1999 | 794.99 | 3.491
x2 = 0.2554 | 789.2 | 2.951
x2 = 0.2999 | 784.67 | 2.564
x2 = 0.3555 | 779.16 | 2.136
x2 = 0.3998 | 774.9 | 1.836
x2 = 0.4554 | 769.69 | 1.509
x2 = 0.4999 | 765.64 | 1.284
x2 = 0.5555 | 760.74 | 1.046
x2 = 0.5998 | 756.94 | 0.889
x2 = 0.6555 | 752.3 | 0.73
x2 = 0.7 | 748.7 | 0.63
x2 = 0.7554 | 744.32 | 0.538
x2 = 0.7998 | 740.91 | 0.487
x2 = 0.8554 | 736.74 | 0.45
x2 = 0.8999 | 733.47 | 0.438
x2 = 0.9554 | 729.48 | 0.445

CCCCCC(C)O (centres undefined) [2-heptanol]
[2]
Details | mass density [kg/m3] | viscosity [mPa·s]
– | 813.74 | 5.08

CCCCC(C)O (centres undefined) [2-hexanol] + CCCCCCCCCC
[1]
Details | mass density [kg/m3] | viscosity [mPa·s]
x2 = 0 | 810.84 | 4.105
x2 = 0.0555 | 802.94 | 3.569
x2 = 0.0999 | 797.23 | 3.17
x2 = 0.1554 | 790.5 | 2.725
x2 = 0.1998 | 785.43 | 2.41
x2 = 0.2556 | 779.42 | 2.062
x2 = 0.2999 | 774.91 | 1.821
x2 = 0.3555 | 769.55 | 1.561
x2 = 0.3998 | 765.52 | 1.384
x2 = 0.4554 | 760.72 | 1.198
x2 = 0.4998 | 757.1 | 1.076
x2 = 0.5554 | 752.79 | 0.952
x2 = 0.5997 | 749.54 | 0.875
x2 = 0.6555 | 745.66 | 0.802
x2 = 0.6999 | 742.72 | 0.76
x2 = 0.7555 | 739.25 | 0.725
x2 = 0.7998 | 736.62 | 0.708
x2 = 0.8555 | 733.48 | 0.699
x2 = 0.8999 | 731.11 | 0.698
x2 = 0.9555 | 728.29 | 0.703

CCCCCCCCCC [decane] + CCCCCC(C)O
[1], x1 = 1
Details | mass density [kg/m3] | viscosity [mPa·s]
– | 726.35 | 0.845

CCCCCC(C)O (centres undefined) [2-heptanol] + CCCCCCCCCC
[1]
Details | mass density [kg/m3] | viscosity [mPa·s]
x2 = 0 | 813.74 | 5.08
x2 = 0.0552 | 806.87 | 4.25
x2 = 0.0999 | 801.55 | 3.732
x2 = 0.1555 | 795.15 | 3.152
x2 = 0.1999 | 790.26 | 2.74
x2 = 0.2554 | 784.36 | 2.283
x2 = 0.2999 | 779.83 | 1.962
x2 = 0.3554 | 774.4 | 1.614
x2 = 0.3998 | 770.24 | 1.375
x2 = 0.4555 | 765.23 | 1.122
x2 = 0.4998 | 761.41 | 0.954
x2 = 0.5555 | 756.8 | 0.782
x2 = 0.5999 | 753.27 | 0.673
x2 = 0.6554 | 749.04 | 0.57
x2 = 0.6999 | 745.79 | 0.51
x2 = 0.7553 | 741.87 | 0.461
x2 = 0.8 | 738.84 | 0.44
x2 = 0.8555 | 735.2 | 0.432
x2 = 0.8998 | 732.39 | 0.438
x2 = 0.9553 | 728.98 | 0.457

CCCCCCCCCC [decane]
[2]
Details | mass density [kg/m3] | viscosity [mPa·s]
– | 726.35 | 0.845

CCCCC(C)O (centres undefined) [2-hexanol]
[2]
Details | mass density [kg/m3] | viscosity [mPa·s]
– | 810.84 | 4.105

CCCCCCC(C)O (centres undefined) [2-octanol]
[2]
Details | mass density [kg/m3] | viscosity [mPa·s]
– | 817.05 | 6.429
